From PubChem BioAssay AID192 (DTP/NCI, 2004)
“And” between values parts separate entries of the source, which are not always exact repeats. Identical values can stand only once. Toxic doses and inconclusive results are not listed. How the source made its calls: active means survival T/C of 150% or more; inactive means T/C below 125% in these data.

Tested on: BDF1 mice, B16 melanoma ip, median survival T/C
Test: NCI In Vivo Anticancer Drug Screen. Data for tumor model B16 Melanoma (intraperitoneal) in B6D2F1 (BDF1) mice
Conditions: endpoint: median survival time, higher = longer survival
In short: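 Tumor-bearing mice received test compound or vehicle. Survival or tumor size was then measured in both groups. The treated-group figure was divided by the control-group figure.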

[1] = dose: 50.0 mg/kg/injection, schedule: Q01DX009 (ip), vehicle: Klucel (hydroxypropylcellulose) (HPC)
[2] = dose: 12.5 mg/kg/injection, schedule: Q01DX009 (ip), vehicle: saline with Tween-80
[3] = dose: 25.0 mg/kg/injection, schedule: Q01DX009 (ip), vehicle: saline with Tween-80
[4] = dose: 50.0 mg/kg/injection, schedule: Q01DX009 (ip), vehicle: saline with Tween-80
[5] = dose: 100.0 mg/kg/injection, schedule: Q01DX009 (ip), vehicle: saline with Tween-80
[6] = dose: 100.0 mg/kg/injection, schedule: Q01DX009 (ip), vehicle: Klucel (hydroxypropylcellulose) (HPC)
[7] = dose: 200.0 mg/kg/injection, schedule: Q01DX009 (ip), vehicle: Klucel (hydroxypropylcellulose) (HPC)
[8] = dose: 400.0 mg/kg/injection, schedule: Q01DX009 (ip), vehicle: Klucel (hydroxypropylcellulose) (HPC)
[9] = dose: 6.25 mg/kg/injection, schedule: Q01DX009 (ip), vehicle: saline with Tween-80
[10] = dose: 0.25 mg/kg/injection, schedule: Q01DX009 (ip), vehicle: saline
[11] = dose: 0.5 mg/kg/injection, schedule: Q01DX009 (ip), vehicle: saline
[12] = dose: 1.0 mg/kg/injection, schedule: Q01DX009 (ip), vehicle: saline
[13] = dose: 2.0 mg/kg/injection, schedule: Q01DX009 (ip), vehicle: saline
[14] = dose: 4.0 mg/kg/injection, schedule: Q01DX009 (ip), vehicle: saline
[15] = dose: 6.25 mg/kg/injection, schedule: Q01DX009 (ip), vehicle: saline

Measured: T/C

CCC[CH2][Sn]([CH2]CCC)([S]C#N)[S]C#N
inactive: dose: 0.75 mg/kg/injection, schedule: Q01DX009 (ip), vehicle: saline with Tween-80 98 % of control | dose: 1.5 mg/kg/injection, schedule: Q01DX009 (ip), vehicle: saline with Tween-80 101 % of control | dose: 3.0 mg/kg/injection, schedule: Q01DX009 (ip), vehicle: saline with Tween-80 98 % of control

Cn1c(N)c(C(=O)/C=C/c2ccccc2)c(=O)n(C)c1=O
inactive: [1] 88 % of control

Clc1ccc(C[P+](c2ccccc2)(c2ccccc2)c2ccccc2)cc1Cl
inactive: dose: 3.12 mg/kg/injection, schedule: Q01DX009 (ip), vehicle: Klucel (hydroxypropylcellulose) (HPC) 103 % of control | dose: 6.25 mg/kg/injection, schedule: Q01DX009 (ip), vehicle: Klucel (hydroxypropylcellulose) (HPC) 101 % of control | dose: 12.5 mg/kg/injection, schedule: Q01DX009 (ip), vehicle: Klucel (hydroxypropylcellulose) (HPC) 107 % of control

C=CCNc1nc2c(s1)CCc1cc(OC)c(OC)cc1-2
inactive: [2] 104 % of control | [3] 106 % of control | [4] 115 % of control | [5] 104 % of control | dose: 200.0 mg/kg/injection, schedule: Q01DX009 (ip), vehicle: saline with Tween-80 104 % of control

Cc1cc2nc(-c3ccccc3O)[nH]c2cc1C
inactive: [6] 93 % of control and 94 % of control | [7] 94 % of control and 106 % of control

O=P(NC12CC3CC(CC(C3)C1)C2)(N1CC1)N1CC1
inactive: dose: 4.4 mg/kg/injection, schedule: Q01DX009 (ip), vehicle: Klucel (hydroxypropylcellulose) (HPC) 100 % of control | dose: 6.6 mg/kg/injection, schedule: Q01DX009 (ip), vehicle: Klucel (hydroxypropylcellulose) (HPC) 110 % of control

Cc1c(Cl)cccc1NC(=O)c1ccccc1C(=O)O
inactive: [6] 100 % of control | [7] 102 % of control

CCCCC(CCCC)(C(N)=O)C(=O)OCC
inactive: [6] 106 % of control | [7] 100 % of control | [8] 103 % of control

COc1cc(C(C)(C)C)cc(OC)c1C(O)(c1c(OC)cc(C(C)(C)C)cc1OC)c1c(OC)cc(C(C)(C)C)cc1OC
inactive: [9] 102 % of control | [2] 116 % of control | [3] 109 % of control | [4] 121 % of control | [5] 109 % of control

O=S1(=O)C=Cc2ccccc21
inactive: [1] 90 % of control | [6] 88 % of control | [7] 88 % of control

CC(C)n1c2c([n+](C)c1/C=C/c1ccccc1)C(=O)c1ccccc1C2=O
inactive: dose: 0.13 mg/kg/injection, schedule: Q01DX009 (ip), vehicle: saline 94 % of control | [10] 96 % of control | [11] 100 % of control | dose: 1.0 mg/kg/injection, schedule: Q01DX009 (ip), vehicle: saline with Tween-80 94 % of control | [12] 102 % of control | [13] 90 % of control | [14] 97 % of control

CCCCCCCCCCCc1n(Cc2ccccc2)cc[n+]1C
inactive: dose: 0.75 mg/kg/injection, schedule: Q01DX009 (ip), vehicle: saline 86 % of control | dose: 1.5 mg/kg/injection, schedule: Q01DX009 (ip), vehicle: saline 90 % of control | dose: 3.0 mg/kg/injection, schedule: Q01DX009 (ip), vehicle: saline 97 % of control

CCNCCCN
inactive: [15] 102 % of control | dose: 12.5 mg/kg/injection, schedule: Q01DX009 (ip), vehicle: saline 102 % of control | dose: 25.0 mg/kg/injection, schedule: Q01DX009 (ip), vehicle: saline 94 % of control

CCCCCCCCCCCCCCCCCCOC(=O)Cc1ccc(N(CCCl)CCCl)cc1
inactive: dose: 180.0 mg/kg/injection, schedule: Q04DX003 (ip), vehicle: saline with Tween-80 102 % of control | dose: 266.0 mg/kg/injection, schedule: Q04DX003 (ip), vehicle: saline with Tween-80 107 % of control

C=CC(C(=O)OCC)C(O)CCC (centres undefined)
inactive: [1] 121 % of control | [6] 100 % of control | [7] 101 % of control

Cc1ccc2c([N+](=O)[O-])cccc2n1
inactive: dose: 25.0 mg/kg/injection, schedule: Q01DX009 (ip), vehicle: Klucel (hydroxypropylcellulose) (HPC) 107 % of control | [1] 93 % of control | [6] 98 % of control

CCC(=O)c1ccc2c(c1)N(CCCN1CCN(CCO)CC1)c1ccccc1S2
inactive: [10] 100 % of control | [11] 95 % of control | [12] 92 % of control | [13] 89 % of control | [14] 105 % of control

Cn1c2c(c3ccccc3c1=O)C(=O)c1ccccc1-2
inactive: [3] 97 % of control | [4] 89 % of control

COc1cc2c(cc1OC)N(S(=O)(=O)c1ccc(C)cc1)CCCC2=O
inactive: dose: 100.0 mg/kg/injection, schedule: Q04DX003 (ip), vehicle: Klucel (hydroxypropylcellulose) (HPC) 87 % of control | dose: 200.0 mg/kg/injection, schedule: Q04DX003 (ip), vehicle: Klucel (hydroxypropylcellulose) (HPC) 100 % of control | dose: 400.0 mg/kg/injection, schedule: Q04DX003 (ip), vehicle: Klucel (hydroxypropylcellulose) (HPC) 92 % of control

C[C@H](CCC(=O)O)[C@H]1CC[C@H]2[C@@H]3[C@H](O)C[C@@H]4C[C@H](O)CC[C@]4(C)[C@H]3C[C@H](O)[C@]12C (tested in a mixture with another compound)
inactive: dose: 50.0 mg/kg/injection, schedule: Q01DX009 (ip), vehicle: saline 102 % of control | dose: 100.0 mg/kg/injection, schedule: Q01DX009 (ip), vehicle: saline 109 % of control | dose: 200.0 mg/kg/injection, schedule: Q01DX009 (ip), vehicle: saline 111 % of control

COc1cc2c[n+](C)c3c4cc5c(cc4ccc3c2cc1OC)OCO5
inactive: dose: 5.0 mg/kg/injection, schedule: Q01DX009 (ip), vehicle: water 122 % of control | [2] 113 % of control | [3] 115 % of control | dose: 40.0 mg/kg/injection, schedule: Q01DX009 (ip), vehicle: water 120 % of control | [4] 97 % of control

C1CC[N-]CC1.C1CC[N-]CC1.[Cl][Pt+2]([Cl])([Cl])[Cl]
inactive: [1] 111 % of control | [6] 120 % of control | [7] 123 % of control

CCOC(C[Se][Se]CC(OCC)OCC)OCC
inactive: dose: 1.56 mg/kg/injection, schedule: Q01DX009 (ip), vehicle: saline 99 % of control | dose: 3.13 mg/kg/injection, schedule: Q01DX009 (ip), vehicle: saline 104 % of control | [15] 95 % of control

C[CH2][Pb]([Br])([CH2]C)[CH2]C
inactive: dose: 3.12 mg/kg/injection, schedule: Q01DX009 (ip), vehicle: saline with Tween-80 91 % of control | [9] 94 % of control | [2] 89 % of control | [3] 94 % of control

CCCCCCCCCCCCCCCC(C)(C)O
inactive: [6] 100 % of control | [7] 100 % of control | [8] 86 % of control

Cc1cccc(C(=O)CC(O)(C(F)(F)F)C(F)(F)F)n1
inactive: dose: 100.0 mg/kg/injection, schedule: Q04DX003 (ip), vehicle: saline with Tween-80 110 % of control | dose: 200.0 mg/kg/injection, schedule: Q04DX003 (ip), vehicle: saline with Tween-80 100 % of control | dose: 400.0 mg/kg/injection, schedule: Q04DX003 (ip), vehicle: saline with Tween-80 100 % of control

Cc1cc(/C=C\c2ccc3ccccc3[n+]2C)c(O)c2ncccc12
inactive: [9] 106 % of control | [2] 101 % of control | [3] 101 % of control

COC(=O)c1n[nH]c(C(C)C)c1N=NN(C)C
inactive: dose: 37.5 mg/kg/injection, schedule: Q01DX009 (ip), vehicle: saline with Tween-80 110 % of control | dose: 75.0 mg/kg/injection, schedule: Q01DX009 (ip), vehicle: saline with Tween-80 115 % of control
